A word on the Kd: it is the equilibrium constant for the complex coming apart. Higher therefore signals lower affinity.

Kd data for 21 compounds are collected here from patent publication US20250115598A1 (Anaxis Pharma Pty Ltd, priority 2021, published 2025).

Molecules are shown by their SMILES.

One experiment addresses human RIPK1 (Homo sapiens (Human), UniProt Q13546). The experiment in a line: KINOMEscan binding assay, human RIPK1. Conditions: Table 21. A digest of the protocol:
(§1)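 Compound dilutions (11 points, 3-fold, mostly from 30,000 nM, 1% DMSO final) competed with immobilized ligand for DNA- or phage-tagged protein, and bead-bound protein was measured by qPCR. Kd values came from Hill-equation fits with slope −1 (Levenberg-Marquardt).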

In another experiment the target is human RIPK3 (Homo sapiens (Human), UniProt Q9Y572). Kind of experiment: KINOMEscan binding assay, human RIPK3. Conditions: Table 21. The essentials: as §1
human RIPK3, sequence (Q9Y572 whole entry): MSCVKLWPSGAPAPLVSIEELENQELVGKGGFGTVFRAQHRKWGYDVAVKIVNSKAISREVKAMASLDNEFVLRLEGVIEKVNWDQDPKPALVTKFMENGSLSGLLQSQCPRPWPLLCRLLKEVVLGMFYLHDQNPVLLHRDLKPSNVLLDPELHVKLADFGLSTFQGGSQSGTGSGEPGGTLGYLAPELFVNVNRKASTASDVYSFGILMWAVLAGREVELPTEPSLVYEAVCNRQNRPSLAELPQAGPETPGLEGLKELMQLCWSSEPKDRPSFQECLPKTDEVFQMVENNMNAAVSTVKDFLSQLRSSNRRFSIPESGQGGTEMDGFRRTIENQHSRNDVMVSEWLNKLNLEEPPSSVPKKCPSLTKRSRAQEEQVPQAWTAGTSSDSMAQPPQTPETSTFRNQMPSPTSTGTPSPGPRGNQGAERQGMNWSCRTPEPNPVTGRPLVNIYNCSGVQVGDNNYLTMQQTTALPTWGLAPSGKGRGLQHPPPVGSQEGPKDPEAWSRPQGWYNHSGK

human RIPK1, sequence (Q13546 whole entry): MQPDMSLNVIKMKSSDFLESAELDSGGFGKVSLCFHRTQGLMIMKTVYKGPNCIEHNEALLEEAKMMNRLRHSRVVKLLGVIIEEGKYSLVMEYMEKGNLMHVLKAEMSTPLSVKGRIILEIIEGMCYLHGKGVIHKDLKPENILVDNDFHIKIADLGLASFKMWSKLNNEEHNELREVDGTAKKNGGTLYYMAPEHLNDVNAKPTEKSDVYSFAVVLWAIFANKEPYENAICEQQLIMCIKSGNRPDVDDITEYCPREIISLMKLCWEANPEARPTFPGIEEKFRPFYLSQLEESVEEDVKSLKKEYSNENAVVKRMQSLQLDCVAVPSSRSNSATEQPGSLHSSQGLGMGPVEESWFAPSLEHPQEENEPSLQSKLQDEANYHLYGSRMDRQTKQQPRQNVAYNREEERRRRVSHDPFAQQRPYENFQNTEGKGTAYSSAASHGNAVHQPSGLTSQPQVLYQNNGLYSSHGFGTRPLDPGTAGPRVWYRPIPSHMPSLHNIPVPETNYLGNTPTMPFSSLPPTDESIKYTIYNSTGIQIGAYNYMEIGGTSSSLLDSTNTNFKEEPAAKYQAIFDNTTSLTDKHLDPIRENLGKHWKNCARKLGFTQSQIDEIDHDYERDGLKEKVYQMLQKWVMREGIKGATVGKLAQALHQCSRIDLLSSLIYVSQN

For `CC(C)n1nc(-c2ccc(NS(=O)(=O)C(F)F)c(O[C@@H](C)c3ccc(F)cc3)c2)c2c(N)ncc(-c3cnn(C)c3)c21` [Compound 52, (S)-N-(4-(4-amino-1-isopropyl-7-(1-methyl-1H-pyrazol-4-yl)-1H-pyrazolo[4,3-c]pyridin-3-yl)-2-(1-(4-fluorophenyl)ethoxy)phenyl)-1,1-difluoromethane-sulfonamide], the Kd on human RIPK1 and at human RIPK3 was more than 10 µM throughout.

Consider `C[C@H](Oc1cc(-c2nn(C)c3c(-c4cnn(C5CCN(CC(F)(F)F)C(C)(C)C5)c4)cnc(N)c23)ccc1NS(=O)(=O)C(F)F)c1ccc(F)cc1` (stereo partly drawn) [Compound 167, N-(4-(4-amino-7-(1-(2,2-dimethyl-1-(2,2,2-trifluoroethyl)piperidin-4-yl)-1H-pyrazol-4-yl)-1-methyl-1H-pyrazolo[4,3-c]pyridin-3-yl)-2-((S)-1-(4-fluorophenyl)ethoxy)phenyl)-1,1-difluoromethanesulfonamide], for which the Kd at human RIPK1 and on human RIPK3 was more than 10 µM throughout.

Turning to `C[C@H](Oc1cc(-c2nn(C)c3c(-c4ccc(N5CCOCC5)nc4)cnc(N)c23)ccc1NS(=O)(=O)C(F)F)c1ccc(F)cc1` [Compound 115, (S)-N-(4-(4-amino-1-methyl-7-(6-morpholinopyridin-3-yl)-1H-pyrazolo[4,3-c]pyridin-3-yl)-2-(1-(4-fluorophenyl)ethoxy)phenyl)-1,1-difluoromethanesulfonamide], the Kd on human RIPK1 and at human RIPK3 was more than 10 µM each time.

Regarding `CCS(=O)(=O)Nc1ccc(-c2cnn3ccnc(N)c23)cc1OCc1ccc(F)cc1` [Compound 64, N-(4-(4-Aminopyrazolo[1,5-a]pyrazin-3-yl)-2-((4-fluorophenyl)methoxy)phenyl)ethane-1-sulfonamide], the Kd at human RIPK1 and on human RIPK3 was more than 10 µM throughout.

With `COC[C@H](Oc1cc(-c2nn(C)c3c(-c4cnn(C5CCOCC5)c4)cnc(N)c23)ccc1NS(=O)(=O)C(F)F)c1ccc(F)cc1` [Compound 111, (R)—N-(4-(4-amino-1-methyl-7-(1-(tetrahydro-2H-pyran-4-yl)-1H-pyrazol-4-yl)-1H-pyrazolo[4,3-c]pyridin-3-yl)-2-(1-(4-fluorophenyl)-2-methoxyethoxy)phenyl)-1,1-difluoromethanesulfonamide], the Kd on human RIPK1 and on human RIPK3 was more than 10 µM in each case.

For the compound `C[C@H](Oc1cc(-c2nn(C)c3c(C4CCN(C)CC4)cnc(N)c23)ccc1NS(=O)(=O)C(F)F)c1ccc(F)cc1` [Compound 42, (S)—N-(4-(4-amino-1-methyl-7-(1-methylpiperidin-4-yl)-1H-pyrazolo[4,3-c]pyridin-3-yl)-2-(1-(4-fluorophenyl)ethoxy)phenyl)-1,1-difluoromethanesulfonamide], the Kd on human RIPK1 and on human RIPK3 was more than 10 µM each time.

For the compound `C[C@H](Oc1cc(-c2nn(C)c3c(-c4cccc(Cl)c4)cnc(N)c23)ccc1NS(=O)(=O)C(F)F)c1ccc(F)cc1` [Compound 84, (S)-N-(4-(4-amino-7-(3-chlorophenyl)-1-methyl-1H-pyrazolo[4,3-c]pyridin-3-yl)-2-(1-(4-fluorophenyl)ethoxy)phenyl)-1,1-difluoromethanesulfonamide], the Kd at human RIPK1 and at human RIPK3 was more than 10 µM each time.

For `C[C@H](Oc1cc(-c2nn(C)c3c(-c4cnn(C5CCOCC5)c4)cnc(N)c23)ccc1NS(=O)(=O)CC(F)(F)F)c1ccc(F)cc1` [Compound 44, (S)—N-(4-(4-amino-1-methyl-7-(1-(tetrahydro-2H-pyran-4-yl)-1H-pyrazol-4-yl)-1H-pyrazolo[4,3-c]pyridin-3-yl)-2-(1-(4-fluorophenyl)ethoxy)phenyl)-2,2,2-trifluoroethane-1-sulfonamide], the Kd on human RIPK1 and at human RIPK3 was more than 10 µM each time.

As to `C[C@H](Oc1cc(-c2nn(C)c3c(-c4cnn5c4CN(C)CC5)cnc(N)c23)ccc1NS(=O)(=O)C(F)F)c1ccc(F)cc1` [Compound 91, (S)—N-(4-(4-amino-1-methyl-7-(5-methyl-4,5,6,7-tetrahydropyrazolo[1,5-a]pyrazin-3-yl)-1H-pyrazolo[4,3-c]pyridin-3-yl)-2-(1-(4-fluorophenyl)ethoxy)phenyl)-1,1-difluoromethanesulfonamide], the Kd on human RIPK1 and on human RIPK3 was more than 10 µM in each case.

In the case of `COCC(Oc1cc(-c2nn(C)c3c(-c4cnn(C5CCN(C)CC5)c4)cnc(N)c23)ccc1NS(=O)(=O)C(F)F)c1ccc(F)cc1` (stereo not drawn) [Compound 139, N-(4-(4-amino-1-methyl-7-(1-(1-methyl-piperidin-4-yl)-1H-pyrazol-4-yl)-1H-pyrazolo[4,3-c]pyridin-3-yl)-2-(1-(4-fluorophenyl)-2-methoxyethoxy)phe-nyl)-1,1-difluoro-methanesulfonamide], the Kd on human RIPK1 and on human RIPK3 was more than 10 µM throughout.

Take `CC(C)n1nc(-c2ccc(NS(=O)(=O)C(F)F)c(O[C@@H](C)c3ccc(F)cc3)c2)c2c(N)ncc(-c3cnn(C4CCOCC4)c3)c21` [Compound 51, (S)-N-(4-(4-amino-1-isopropyl-7-(1-(tetrahydro-2H-pyran-4-yl)-1H-pyrazol-4-yl)-1H-pyrazolo[4,3-c]pyridin-3-yl)-2-(1-(4-fluorophenyl)ethoxy)phenyl)-1,1-difluoromethane-sulfonamide]: the Kd on human RIPK1 and at human RIPK3 was more than 10 µM throughout.

Take `Nc1n[nH]c2ccnc(-c3ccc(NS(=O)(=O)C(F)F)c(OCc4ccc(F)cc4)c3)c12` [Compound 68, N-(4-(3-amino-1H-pyrazolo[4,3-c]pyridin-4-yl)-2-((4-fluorophenyl)methoxy)phenyl)-1,1-difluoromethanesulfonamide]: the Kd on human RIPK1 and at human RIPK3 was more than 10 µM each time.

`C[C@H](Oc1cc(-c2nn(C)c3c(-c4cnn(C5CCOCC5)c4)cnc(N)c23)ccc1NS(=O)(=O)C(F)F)c1ccccc1F` [Compound 118, (S)-N-(4-(4-amino-1-methyl-7-(1-(tetrahydro-2H-pyran-4-yl)-1H-pyrazol-4-yl)-1H-pyrazolo[4,3-c]pyridin-3-yl)-2-(1-(2-fluoro-phenyl)ethoxy)phenyl)-1,1-difluoromethane-sulfonamide]: the dissociation constant Kd at human RIPK1 and at human RIPK3 was more than 10 µM each time.

For the compound `C[C@H](Oc1cc(-c2nn(C)c3c(Cc4ccccc4)cnc(N)c23)ccc1NS(=O)(=O)C(F)F)c1ccc(F)cc1` [Compound 34, (S)-N-(4-(4-amino-7-benzyl-1-methyl-1H-pyrazolo[4,3-c]pyridin-3-yl)-2-(1-(4-fluorophenyl)ethoxy)phenyl)-1,1-difluoromethanesulfonamide], the Kd on human RIPK1 and at human RIPK3 was more than 10 µM each time.

`Nc1n[nH]c2ccnc(-c3ccc(NS(=O)(=O)CC(F)(F)F)c(OCc4ccc(F)cc4)c3)c12` [Compound 65, N-(4-(3-amino-1H-pyrazolo[4,3-c]pyridin-4-yl)-2-((4-fluorophenyl)methoxy)phenyl)-2,2,2-trifluoroethane-1-sulfonamide]: the Kd on human RIPK1 and on human RIPK3 was more than 10 µM throughout.

In the case of `C[C@H](Oc1cc(-c2nn(C)c3c(-c4ccc5c(c4)CC(=O)N5C)cnc(N)c23)ccc1NS(=O)(=O)C(F)F)c1ccc(F)cc1` [Compound 165, (S)-N-(4-(4-amino-1-methyl-7-(1-methyl-2-oxoindolin-5-yl)-1H-pyrazolo[4,3-c]pyridin-3-yl)-2-(1-(4-fluorophenyl)ethoxy)phenyl)-1,1-difluoromethanesulfonamide], the Kd at human RIPK1 and on human RIPK3 was more than 10 µM each time.

As to `C[C@H](Oc1cc(-c2nn(C)c3c(-c4cc(C#N)n(C)c4)cnc(N)c23)ccc1NS(=O)(=O)C(F)F)c1ccc(F)cc1` [Compound 83, (S)-N-(4-(4-amino-7-(5-cyano-1-methyl-1H-pyrrol-3-yl)-1-methyl-1H-pyrazolo[4,3-c]pyridin-3-yl)-2-(1-(4-fluorophenyl)ethoxy)phenyl)-1,1-difluoromethanesulfonamide], the Kd on human RIPK1 and at human RIPK3 was more than 10 µM each time.

Take `Cc1c(-c2cnc(N)c3c(-c4ccc(NS(=O)(=O)C(F)F)c(O[C@@H](C)c5ccc(F)cc5)c4)nn(C)c23)cnn1C1CCN(C)C(C)(C)C1` (stereo partly drawn) [Compound 157, N-(4-(4-amino-1-methyl-7-(5-methyl-1-(1,2,2-trimethylpiperidin-4-yl)-1H-pyrazol-4-yl)-1H-pyrazolo[4,3-c]pyridin-3-yl)-2-((S)-1-(4-fluorophenyl)ethoxy)phenyl)-1,1-difluoromethanesulfonamide]: the Kd on human RIPK1 and on human RIPK3 was more than 10 µM throughout.

As to `C[C@H](Oc1cc(-c2nn(C)c3c(-c4cnc(N5CCCC5)nc4)cnc(N)c23)ccc1NS(=O)(=O)C(F)F)c1ccc(F)cc1` [Compound 114, (S)-N-(4-(4-amino-1-methyl-7-(2-(pyrrolidin-1-yl)pyrimidin-5-yl)-1H-pyrazolo[4,3-c]pyridin-3-yl)-2-(1-(4-fluorophenyl)ethoxy)phenyl)-1,1-difluoromethanesulfonamide], the Kd on human RIPK1 and at human RIPK3 was more than 10 µM each time.

Regarding `CC1CNCC(n2cc(-c3cnc(N)c4c(-c5ccc(NS(=O)(=O)C(F)F)c(O[C@@H](C)c6ccc(F)cc6)c5)nn(C)c34)cn2)C1` (stereo partly drawn) [Compound 95, N-(4-(4-amino-1-methyl-7-(1-(5-methylpiperidin-3-yl)-1H-pyrazol-4-yl)-1H-pyrazolo[4,3-c]pyridin-3-yl)-2-((S)-1-(4-fluorophenyl)ethoxy)phenyl)-1,1-difluoromethane-sulfonamide], the Kd at human RIPK1 and at human RIPK3 was more than 10 µM each time.

Consider `C[C@H](Oc1cc(-c2nn(C)c3c(-c4ccccc4Cl)cnc(N)c23)ccc1NS(=O)(=O)C(F)F)c1ccc(F)cc1` [Compound 85, (S)-N-(4-(4-amino-7-(2-chlorophenyl)-1-methyl-1H-pyrazolo[4,3-c]pyridin-3-yl)-2-(1-(4-fluorophenyl)ethoxy)phenyl)-1,1-difluoromethanesulfonamide], for which the Kd on human RIPK1 and at human RIPK3 was more than 10 µM each time.
